Test results taken from ChEMBL document CHEMBL1201862, “PubChem BioAssay data set” (2004).
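Dose response: 5 concentrations. Exposure: 48 h. Format: 96-well plates. Endpoint: linear interpolation; highest concentration if not reached. Abbreviation: GI50, concentration required for 50% inhibition of growth.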 Active and inactive are the calls of the source. Rule as the data show it: active = GI50 up to about 1.1 µM and inactive = higher.

Legend:
Experiment in all cases: inhibition of tumour cell growth, NCI panel, 48 h
RXF 393 = test system: RXF 393
MOLT-4 = test system: MOLT-4
CAKI-1 = test system: CAKI-1
HCC 2998 = test system: HCC 2998
SK-MEL-2 = test system: SK-MEL-2
HL-60 = test system: HL-60
ACHN = test system: ACHN
SK-OV-3 = test system: SK-OV-3
LXFL 529 = test system: LXFL 529
SR = test system: SR
TK-10 = test system: TK-10
NCI-H226 = test system: NCI-H226
786-0 = test system: 786-0
OVCAR-3 = test system: OVCAR-3
SF-268 = test system: SF-268
SNB-78 = test system: SNB-78
SF-539 = test system: SF-539
NCI-H23 = test system: NCI-H23
A549 = test system: A549
HOP-92 = test system: HOP-92
OVCAR-4 = test system: OVCAR-4
XF498 = test system: XF498
SK-MEL-28 = test system: SK-MEL-28
A498 = test system: A498
KM12 = test system: KM12
SF-295 = test system: SF-295
HCT-116 = test system: HCT-116
SNB-19 = test system: SNB-19
M19-MEL = test system: M19-MEL
CCRF-CEM = test system: CCRF-CEM
DMS-273 = test system: DMS-273
UACC-257 = test system: UACC-257
RXF 631 = test system: RXF 631
IGROV-1 = test system: IGROV-1
SNB-75 = test system: SNB-75
UACC-62 = test system: UACC-62
HT-29 = test system: HT-29
LOX IMVI = test system: LOX IMVI
U-251 = test system: U-251
SW-620 = test system: SW-620
SN12C = test system: SN12C
NCI-H522 = test system: NCI-H522
RPMI-8226 = test system: RPMI-8226
UO-31 = test system: UO-31
SK-MEL-5 = test system: SK-MEL-5
DLD-1 = test system: DLD-1
OVCAR-8 = test system: OVCAR-8
HOP-62 = test system: HOP-62
Malme-3M = test system: Malme-3M
M14 = test system: M14
K562 = test system: K562
OVCAR-5 = test system: OVCAR-5
NCI-H460 = test system: NCI-H460
KM-20L2 = test system: KM-20L2
HOP-18 = test system: HOP-18
COLO 205 = test system: COLO 205
EKVX = test system: EKVX
HCT-15 = test system: HCT-15
DMS-114 = test system: DMS-114

`CNC(=O)NCCN1N=C(C)/C(=C\c2ccccc2)CC1=O` was tested, and the GI50 (RXF 393) was > 100 µM (inactive), the GI50 (MOLT-4) was > 100 µM (inactive) and the GI50 (CAKI-1) was > 100 µM (inactive). The GI50 (HCC 2998) was > 100 µM (inactive), the GI50 (SK-MEL-2) was > 100 µM (inactive) and the GI50 (HL-60) was > 100 µM (inactive). For the same compound, the GI50 (ACHN) was > 100 µM (inactive), the GI50 (SK-OV-3) was > 100 µM (inactive) and the GI50 (LXFL 529) was > 100 µM (inactive). For the same compound, the GI50 (SR) was > 100 µM (inactive), the GI50 (TK-10) was > 100 µM (inactive) and the GI50 (NCI-H226) was > 100 µM (inactive). For the same compound, the GI50 (786-0) was > 100 µM (inactive), the GI50 (OVCAR-3) was > 100 µM (inactive) and the GI50 (SF-268) was > 100 µM (inactive). The GI50 (SNB-78) was > 100 µM (inactive), the GI50 (SF-539) was > 100 µM (inactive) and the GI50 (NCI-H23) was > 100 µM (inactive). The GI50 (A549) was > 100 µM (inactive), the GI50 (HOP-92) was > 100 µM (inactive) and the GI50 (OVCAR-4) was > 100 µM (inactive). The GI50 (XF498) was > 100 µM (inactive), the GI50 (SK-MEL-28) was > 100 µM (inactive) and the GI50 (A498) was > 100 µM (inactive). The GI50 (KM12) was > 100 µM (inactive), the GI50 (SF-295) was > 100 µM (inactive) and the GI50 (HCT-116) was > 100 µM (inactive). The GI50 (SNB-19) was > 100 µM (inactive), the GI50 (M19-MEL) was > 100 µM (inactive) and the GI50 (CCRF-CEM) was > 100 µM (inactive). The GI50 (DMS-273) was > 100 µM (inactive), the GI50 (UACC-257) was > 100 µM (inactive) and the GI50 (RXF 631) was > 100 µM (inactive). The GI50 (IGROV-1) was > 100 µM (inactive), the GI50 (SNB-75) was 29 µM (inactive) and the GI50 (UACC-62) was > 100 µM (inactive). For the same compound, the GI50 (HT-29) was > 100 µM (inactive), the GI50 (LOX IMVI) was > 100 µM (inactive) and the GI50 (U-251) was > 100 µM (inactive). The GI50 (SW-620) was > 100 µM (inactive), the GI50 (SN12C) was > 100 µM (inactive) and the GI50 (NCI-H522) was > 100 µM (inactive). The GI50 (RPMI-8226) was > 100 µM (inactive), the GI50 (UO-31) was > 100 µM (inactive) and the GI50 (SK-MEL-5) was > 100 µM (inactive). The GI50 (DLD-1) was > 100 µM (inactive), the GI50 (OVCAR-8) was > 100 µM (inactive) and the GI50 (HOP-62) was > 100 µM (inactive). For the same compound, the GI50 (Malme-3M) was > 100 µM (inactive), the GI50 (M14) was > 100 µM (inactive) and the GI50 (K562) was > 100 µM (inactive). The GI50 (OVCAR-5) was > 100 µM (inactive) and the GI50 (NCI-H460) was > 100 µM (inactive).

`COC(=O)C1Cc2c(n(Cc3ccccc3)c3ccccc23)C(CCC(=O)O)N1C(C)C` (stereo not drawn) was tested, and the GI50 (MOLT-4) was > 100 µM (inactive), the GI50 (CAKI-1) was > 100 µM (inactive) and the GI50 (HCC 2998) was > 100 µM (inactive). The GI50 (SK-MEL-2) was > 100 µM (inactive), the GI50 (HL-60) was > 100 µM (inactive) and the GI50 (ACHN) was > 100 µM (inactive). For the same compound, the GI50 (SK-OV-3) was > 100 µM (inactive), the GI50 (LXFL 529) was > 100 µM (inactive) and the GI50 (SR) was > 100 µM (inactive). For the same compound, the GI50 (KM-20L2) was > 100 µM (inactive), the GI50 (TK-10) was > 100 µM (inactive) and the GI50 (HOP-18) was > 100 µM (inactive). For the same compound, the GI50 (NCI-H226) was > 100 µM (inactive), the GI50 (786-0) was > 100 µM (inactive) and the GI50 (OVCAR-3) was > 100 µM (inactive). The GI50 (SF-268) was > 100 µM (inactive), the GI50 (COLO 205) was > 100 µM (inactive) and the GI50 (SNB-78) was > 100 µM (inactive). The GI50 (SF-539) was > 100 µM (inactive), the GI50 (NCI-H23) was > 100 µM (inactive) and the GI50 (A549) was > 100 µM (inactive). For the same compound, the GI50 (HOP-92) was > 100 µM (inactive), the GI50 (OVCAR-4) was > 100 µM (inactive) and the GI50 (SK-MEL-28) was > 100 µM (inactive). The GI50 (A498) was > 100 µM (inactive), the GI50 (EKVX) was > 100 µM (inactive) and the GI50 (KM12) was > 100 µM (inactive). For the same compound, the GI50 (SF-295) was > 100 µM (inactive), the GI50 (HCT-116) was > 100 µM (inactive) and the GI50 (SNB-19) was > 100 µM (inactive). For the same compound, the GI50 (M19-MEL) was > 100 µM (inactive), the GI50 (CCRF-CEM) was > 100 µM (inactive) and the GI50 (DMS-273) was > 100 µM (inactive). The GI50 (UACC-257) was > 100 µM (inactive), the GI50 (RXF 631) was > 100 µM (inactive) and the GI50 (IGROV-1) was > 100 µM (inactive). For the same compound, the GI50 (HCT-15) was over 100 µM, the GI50 (SNB-75) was > 100 µM (inactive) and the GI50 (UACC-62) was > 100 µM (inactive). For the same compound, the GI50 (HT-29) was > 100 µM (inactive), the GI50 (LOX IMVI) was > 100 µM (inactive) and the GI50 (U-251) was > 100 µM (inactive). The GI50 (SW-620) was > 100 µM (inactive), the GI50 (SN12C) was > 100 µM (inactive) and the GI50 (NCI-H522) was > 100 µM (inactive). For the same compound, the GI50 (UO-31) was > 100 µM (inactive), the GI50 (SK-MEL-5) was > 100 µM (inactive) and the GI50 (DLD-1) was > 100 µM (inactive). The GI50 (OVCAR-8) was > 100 µM (inactive), the GI50 (Malme-3M) was > 100 µM (inactive) and the GI50 (DMS-114) was > 100 µM (inactive). The GI50 (M14) was > 100 µM (inactive), the GI50 (K562) was > 100 µM (inactive) and the GI50 (OVCAR-5) was > 100 µM (inactive). The GI50 (NCI-H460) was > 100 µM (inactive).
